{"source": "patent US9682060B2", "about": "“Small molecules that induce intrinsic pathway apoptosis” (The Board of Trustees of the University of Illinois, priority 2015, dated 2017)", "key": {"U-937 cells [1]": {"test_system": "U-937 cells", "assay": "Annexin V/PI cell viability analysis", "settings": "U-937 cells; 10 μM; time course AV/PI, based on data in FIG. 1F"}, "zebrafish embryos": {"test_system": "zebrafish embryos", "assay": "Apoptosis in zebrafish (secretory annexin V-YFP)", "assay_type": "in vivo", "settings": "transgenic embryos 24 hours post fertilization; 10 μM for 1.5 hours", "description": "Zebrafish experiments were performed as described (van Ham et al., 2010). TuAB zebrafish embryos were used for all experiments and were incubated at 28° C. in HEPES-buffered E3 zebrafish medium (pH 7.2) in the dark. Chemical treatments (10 μM Raptinal or vehicle, 1% v/v final DMSO) were performed in multi-well plates in buffered E3 medium. Images were taken using an AxioCam MRc camera and AxioVision 4.8 software (Zeiss). To quantify apoptosis, the number of secA5-YFP+ apoptotic cells was counted manually in embryos using a fluorescence dissection stereomicroscope (Discovery V8; Zeiss, Germany)."}, "U-937 cells [2]": {"test_system": "U-937 cells", "assay": "Cell morphology by light, scanning electron and transmission electron microscopy", "assay_type": "cell-based, Human", "settings": "10 μM", "description": "Cell Morphology by Light Microscopy.\nPhase contrast images of U-937 cells treated with 10 μM Raptinal were taken with an Olympus DP-21 microscope digital camera. The cells were kept warm between images by returning the plate to the 37° C. incubator.\nScanning Electron Microscopy.\nU-937 cells (4×10^6 cells in 8 mL 0.45 micron-filtered cell culture media) were treated with 1% DMSO) or 10 μM Raptinal in 10 cm culture dishes for 60 minutes. The cells were centrifuged (250×g, 5 min) and the media aspirated. Ice-cold Karnovsky's fixative (1 mL of 0.45 micron filtered) was added to the cell pellet which was resuspended by gently agitation. The cells were fixed overnight at 4° C. and submitted for scanning electron microscopy (SEM) sample processing. The cells were stained with OsO4, placed on filter paper and dehydrated. After mounting, the cells were coated with Pd/Au and scanning electron microscopy was performed.\nTransmission Electron Microscopy.\nU-937 cells (4 mL of 5×10^5 cells/ml) were treated with DMSO or 10 μM of Raptinal for 5, 30, and 60 minutes. The cells were centrifuged 400×g for 5 min and the media aspirated. The cells were fixed by the addition of Karnovsky's fixing solution (0.5 mL) and placed in a 4° C. fridge overnight. The next day, the cells were microwave fixed, stained with 2% OsO4, washed with 3% KCN and enbloc stained with uranyl acetate. The samples were dehydrated with acetonitrile and ethanol, suspended in pure epoxy, and embedded overnight at 85° C. The embedded samples were cut into thick and then thin sections and these were mounted and viewed."}, "U-937 cells [3]": {"test_system": "U-937 cells", "assay": "Mitochondrial permeability transition pore (MPTP) calcein-cobalt assay", "assay_type": "cell-based, Human", "settings": "calcein-cobalt quenching", "description": "Mitochondrial Permeability Transition Pore (MPTP) Calcein-Cobalt Assay.\nU-937 cells (1×10^6 cells/mL in HBSS) were loaded with calcein-AM (20 nM final concentration) for 45 minutes at 37° C. The cells were washed with HBSS and resuspended in RPMI and plated into a 24-well plate (1×10^6 cells in 1 mL). The cells were treated with Raptinal (10 μM) for 15, 30, 45, 60 and 90 minutes. Cobalt(II) chloride was added (10 μL of 80 mM stock in HBSS) to the cells 10 minutes prior to the end of the time points. The cells were pelleted and resuspended in HBSS (0.5 mL) and calcein fluorescence was measured by flow cytometry. As a positive control for MPTP, ionomycin and calcium were added to calcein-labeled cells in HBSS 10 minutes prior to analysis by flow cytometry."}, "U-937 cells [4]": {"test_system": "U-937 cells", "assay": "Cytochrome c release by immunoblot and flow cytometry", "assay_type": "cell-based, Human", "settings": "10 μM", "description": "(§1) Cytochrome c Release by Immunoblot.\n(§2) U-937 cells (3×10^6 cells in 2 mL RPMI) or SKW 6.4 cells (5×10^6 cells in 2 mL RPMI) were treated with 10 μM Raptinal for 10, 20, 30, 45 or 60 minutes in a 12-well plate. Cells were centrifuged (1000×g. 2 min), washed with ice-cold PBS and resuspended in cold 200 μL digitonin permeabilization buffer (75 mM NaCl, 1 mM Sodium phosphate monobasic, 8 mM sodium phosphate dibasic, 250 mM sucrose, 190 μg/mL digitonin, protease cocktail inhibitor, pH 7.5) and placed on ice for 5 min. Cell permeability (>95%) was confirmed by trypan blue. The permeabilized cells were centrifuged (14000×g, 5 min) and 150 μL of supernatant (cytosolic fraction) was saved. The pellet (mitochondrial fraction) was washed in 200 μL digitonin permeabilization buffer and lysed in 25 μL RIPA lysis buffer. […]\n(§3) Suspension cells (2.5×10^6 SKW 6.4 cells or 1.5×10^6 U-937 cells in 1 mL RPMI) were treated with 10 μM Raptinal in a 24 well plate for 10, 20, 30, 45 and 60 min. The cells were centrifuged (1000×g, 2 min), washed with cold PBS and resuspended in cold permeabilization buffer (PBS containing 50 μg/mL digitonin and 100 mM KCl) and placed on ice for 5 min after which >95% of cells were permeabilized as determined by trypan blue. […] The cells were pelleted and washed with PBS (3 mL) and resuspended in PBS (1 mL) and analyzed by flow cytometry. […]"}, "SKW 6.4 cells": {"test_system": "SKW 6.4 cells", "assay": "Cytochrome c release by immunoblot and flow cytometry", "assay_type": "cell-based, Human", "settings": "10 μM", "description": "as §1, §2, §3"}}, "note": "“Also recorded” adds a separate entry of the source.", "data": [{"smiles": "O=CC1(C2(C=O)c3ccccc3-c3ccccc32)c2ccccc2-c2ccccc21", "note": "[Raptinal, [9,9′]bifluorenyl-9,9′-dicarbaldehyde]", "values": [{"measurement": "Time to 50% death", "setting": "U-937 cells [1]", "result": 1.5, "unit": "h"}, {"measurement": "apoptotic cells", "setting": "zebrafish embryos", "result": 80, "unit": "cells per fish"}, {"measurement": "mitochondrial morphology (transmission electron microscopy)", "setting": "U-937 cells [2]; after 5 minutes", "result": "substantial mitochondrial swelling"}, {"measurement": "blebbing", "setting": "U-937 cells [2]; at 30 min", "result": "modest"}, {"measurement": "blebbing", "setting": "U-937 cells [2]; at 60 min", "result": "extensive"}, {"measurement": "mitochondrial permeability transition pore (MPTP) formation", "setting": "U-937 cells [3]", "result": "does not induce; also recorded: did not undergo mitochondrial-permeability-transition-pore (MPTP) formation"}, {"measurement": "time of earliest / partial cytochrome c release", "setting": "U-937 cells [4]", "result": 10, "unit": "min"}, {"measurement": "time of earliest / partial cytochrome c release", "setting": "SKW 6.4 cells", "result": 10, "unit": "min"}]}]}
